Experimental data reported in publication PMC9088669 (Journal of Medical Virology, 2022).
Where two headings read alike, the source gives them in different places.

Assays:
[1] = tested on: SARS‐CoV‐2; settings: previously found; cited from earlier work
[2] = tested on: SARS‐CoV‐2/FFM1; assay: microbe, parasite or virus in culture; settings: Severe acute respiratory syndrome coronavirus 2, Caco-2, 48 h, read-out: EC50 visual CPE
[3] = tested on: SARS‐CoV‐2/FFM1
[4] = tested on: SARS‐CoV‐2; settings: read-out: EC50 reported in previous studies (range); cited from earlier work

| Compound | EC50 [2] [µM] | also measured |
| --- | --- | --- |
| CCN(CC)CCCC(C)Nc1ccnc2cc(Cl)ccc12 (stereo not shown) [Chloroquine] |  | activity in SARS‐CoV‐2–infected Caco‐2 cells [1]: inactive |
| COc1cccc2c1C(=O)c1c(O)c3c(c(O)c1C2=O)C[C@@](O)(C(=O)CO)C[C@@H]3O[C@H]1C[C@H](N)[C@H](O)[C@H](C)O1 [Doxorubicin] | 12 |  |
| CCN(CCO)CCCC(C)Nc1ccnc2cc(Cl)ccc12 (stereo not shown) [Hydroxychloroquine] |  | activity in SARS‐CoV‐2–infected Caco‐2 cells [1]: inactive |
| CCC(C)n1ncn(-c2ccc(N3CCN(c4ccc(OCC5COC(Cn6cncn6)(c6ccc(Cl)cc6Cl)O5)cc4)CC3)cc2)c1=O (stereo not shown) [Itraconazole] | 1.6 |  |
| Cc1c(O)cccc1C(=O)N[C@@H](CSc1ccccc1)[C@H](O)CN1C[C@H]2CCCC[C@H]2C[C@H]1C(=O)NC(C)(C)C [Nelfinavir] | 8.1 |  |
| O=C(NC1CN2CCC1CC2)c1cc(Cl)cc2c1OC1CCCCC21 (stereo not shown) [RG‐12915] |  | EC50 ([3]; read-out: EC50 visual CPE): 12 µM |
| CCC(CC)COC(=O)[C@H](C)N[P@](=O)(OC[C@H]1O[C@@](C#N)(c2ccc3c(N)ncnn23)[C@H](O)[C@@H]1O)Oc1ccccc1 [Remdesivir] | 1.3 | EC50 [4]: 0.77 to 7.28 µM |
| CCN(CC)CCNC(=O)c1ccc(NS(C)(=O)=O)cc1 [Sematilide] | > 100 | antiviral activity in Caco‐2 cells ([3]; Caco‐2 cells, SARS‐CoV‐2/FFM1): not active |
